Measured values reported in ChEMBL document CHEMBL4622979, “Non-rigid Diarylmethyl Analogs of Baloxavir as Cap-Dependent Endonuclease Inhibitors of Influenza Viruses” (J Med Chem, 2020).
pEC50: −log10 of the molar value. Active and inactive are the calls of the source. No cut-off for these calls is given here.

Tests used:
HEK-293T [1] = test: Inhibition of CEN polymerase activity in Influenza A/California/04/2009 (H1N1)pdm09 NP/PA/PB1/PB2 complex transfected in HEK293T cells co-expressing beta-galactosidase at 100 nM preincubated for 3 hrs followed by viral gene transfection and measured after 24 hrs by ONPG substrate based luciferase reporter gene mini-replicon assay relative to control; assay type: cell-based; conditions: Influenza A virus (A/California/04/2009(H1N1))
HEK-293T [2] = test: Inhibition of CEN polymerase activity in Influenza A/California/04/2009 (H1N1)pdm09 NP/PA/PB1/PB2 complex transfected in HEK293T cells co-expressing beta-galactosidase at 25 nM preincubated for 3 hrs followed by viral gene transfection and measured after 24 hrs by ONPG substrate based luciferase reporter gene mini-replicon assay relative to control; assay type: cell-based; conditions: Influenza A virus (A/California/04/2009(H1N1))
Influenza A virus [3] = test: Antiviral activity against Influenza A/California/04/2009 (H1N1)pdm09 infected in MDCK cells assessed as protection against virus-induced cell death by CellTiter-Glo assay; assay type: functional, organism-based; conditions: A/California/04/2009(H1N1) pdm09, MDCK
[4] = Cytotoxicity against MDCK cells assessed as reduction in cell viability by CellTiter-Glo assay; assay type: cell-based, Canis lupus familiaris; conditions: dog
[5] = Selectivity index, ratio of CC50 for MDCK cells to EC50 for Influenza A/California/04/2009 (H1N1)pdm09 virus infected in MDCK cells; assay type: toxicity, cell-based; conditions: dog, read-out: Ratio CC50/EC50
Influenza A virus [6] = test: Antiviral activity against Influenza A virus (A/Denmark/524/2009(H1N1)) pdm09 infected in MDCK cells assessed as protection against virus-induced cell death measured 72 to 96 hrs post-infection by CellTiter-Glo assay; assay type: functional, organism-based; conditions: A/Denmark/524/2009(H1N1) pdm09, MDCK
Influenza A virus H3N2 = test: Antiviral activity against Influenza A virus (A/Fukui/20/2004 (H3N2)) infected in MDCK cells assessed as protection against virus-induced cell death measured 72 to 96 hrs post-infection by CellTiter-Glo assay; assay type: functional, organism-based; conditions: A/Fukui/20/2004, MDCK
Influenza B virus [7] = test: Antiviral activity against Victoria lineage of Influenza B virus (B/Brisbane/60/2008) infected in MDCK cells assessed as protection against virus-induced cell death measured 72 to 96 hrs post-infection by CellTiter-Glo assay; assay type: functional, organism-based; conditions: B/Brisbane/60/2008, MDCK
Influenza B virus [8] = test: Antiviral activity against Yamagata lineage of Influenza B virus (B/Florida/4/2006) infected in MDCK cells assessed as protection against virus-induced cell death measured 72 to 96 hrs post-infection by CellTiter-Glo assay; assay type: functional, organism-based; conditions: B/Florida/4/2006, MDCK
[9] = Cytotoxicity against human MRC5 cells assessed as reduction in cell viability by ATP bioluminescence assay; assay type: cell-based
[10] = Cytotoxicity against human PBMC cells assessed as reduction in cell viability by ATP bioluminescence assay; assay type: cell-based
[11] = Cytotoxicity against MDCK cells assessed as reduction in cell viability by ATP bioluminescence assay; assay type: cell-based, Canis lupus familiaris; conditions: dog
[12] = Cytotoxicity against human HepG2 cells assessed as reduction in cell viability measured after 24 hrs in presence of glucose by MTT assay; assay type: cell-based
[13] = Cytotoxicity against human HepG2 cells assessed as reduction in cell viability measured after 24 hrs in presence of galactose by MTT assay; assay type: cell-based
[14] = Selectivity ratio of CC50 for human HepG2 cells assessed as reduction in cell viability measured after 24 hrs in presence of glucose to CC50 for human HepG2 cells assessed as reduction in cell viability measured after 24 hrs in presence of galactose; assay type: cell-based
[15] = target: dopamine transporter (sodium-dependent dopamine transporter) (Homo sapiens, UniProt Q01959); test: Binding affinity to human dopamine transporter at 10 uM relative to control; assay type: ADME; conditions: read-out: Activity
Sequence of dopamine transporter (sodium-dependent dopamine transporter) (Q01959 whole entry): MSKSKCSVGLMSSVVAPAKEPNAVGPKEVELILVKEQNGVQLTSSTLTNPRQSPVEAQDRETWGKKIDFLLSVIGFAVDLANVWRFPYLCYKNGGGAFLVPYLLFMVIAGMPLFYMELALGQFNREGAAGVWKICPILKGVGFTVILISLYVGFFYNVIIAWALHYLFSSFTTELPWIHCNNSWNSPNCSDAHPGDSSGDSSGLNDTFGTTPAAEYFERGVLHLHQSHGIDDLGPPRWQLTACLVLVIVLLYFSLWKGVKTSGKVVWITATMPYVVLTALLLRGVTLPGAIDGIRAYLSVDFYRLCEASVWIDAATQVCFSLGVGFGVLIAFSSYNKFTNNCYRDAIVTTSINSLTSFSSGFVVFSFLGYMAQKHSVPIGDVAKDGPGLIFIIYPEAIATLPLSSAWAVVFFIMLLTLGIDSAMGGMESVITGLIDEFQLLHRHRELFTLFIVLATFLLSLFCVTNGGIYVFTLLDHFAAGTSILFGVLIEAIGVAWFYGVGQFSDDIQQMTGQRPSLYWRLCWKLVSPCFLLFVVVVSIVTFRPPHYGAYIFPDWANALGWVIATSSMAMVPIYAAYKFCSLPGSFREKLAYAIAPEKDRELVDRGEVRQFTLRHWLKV

[16] = Oral bioavailability in CD1 mouse at 10 mg/kg administered as single dose by LC-MS/MS analysis; assay type: ADME, organism-based; conditions: in vivo
[17] = Cmax in CD1 mouse plasma at 10 mg/kg, po administered as single dose by LC-MS/MS analysis; assay type: ADME, organism-based; parameters: dose 10 mg/kg, route oral
[18] = AUClast in CD1 mouse plasma at 10 mg/kg, po administered as single dose by LC-MS/MS analysis; assay type: ADME, organism-based; parameters: dose 10 mg/kg, route oral, time 0 - last
[19] = AUClast in CD1 mouse plasma at 2 mg/kg, iv administered as single dose by LC-MS/MS analysis; assay type: ADME, organism-based; parameters: dose 2 mg/kg, route intravenous, time 0 - last
[20] = Cmax in CD1 mouse lung at 10 mg/kg, po administered as single dose by LC-MS/MS analysis; assay type: ADME, organism-based; parameters: dose 10 mg/kg, route oral
[21] = AUClast in CD1 mouse lung at 10 mg/kg, po administered as single dose by LC-MS/MS analysis; assay type: ADME, organism-based; conditions: in vivo
[22] = Ratio of Cmax in CD1 mouse lung to plasma at 10 mg/kg, po administered as single dose by LC-MS/MS analysis; assay type: ADME, organism-based; conditions: lung and plasma
[23] = Ratio of AUClast in CD1 mouse lung to plasma at 10 mg/kg, po administered as single dose by LC-MS/MS analysis; assay type: ADME, organism-based; conditions: lung and plasma, read-out: Ratio AUC
[24] = Stability in simulated gastric fluid assessed as parent compound remaining at 1 uM measured after 4 hrs at pH 1.2 by LC-MS/MS analysis; assay type: physicochemical; conditions: read-out: Stability
[25] = Stability in simulated intestinal fluid assessed as parent compound remaining at 1 uM measured after 4 hrs at pH 1.2 by LC-MS/MS analysis; assay type: physicochemical; conditions: read-out: Stability
[26] = Stability in human plasma assessed as parent compound remaining at 1 uM measured after 4 hrs by LC-MS/MS analysis; assay type: ADME, cell-free; conditions: read-out: Stability
[27] = Stability in human liver S9 fraction assessed as parent compound remaining at 1 uM measured after 4 hrs by LC-MS/MS analysis; assay type: ADME, subcellular; conditions: read-out: Stability
[28] = Stability in rat plasma assessed as parent compound remaining at 1 uM measured after 4 hrs by LC-MS/MS analysis; assay type: ADME, cell-free; conditions: read-out: Stability
[29] = Stability in rat liver S9 fraction assessed as parent compound remaining at 1 uM measured after 4 hrs by LC-MS/MS analysis; assay type: ADME, subcellular; conditions: read-out: Stability
[30] = Stability in mouse plasma assessed as parent compound remaining at 1 uM measured after 4 hrs by LC-MS/MS analysis; assay type: ADME, cell-free; conditions: read-out: Stability
[31] = Stability in mouse liver S9 fraction assessed as parent compound remaining at 1 uM measured after 4 hrs by LC-MS/MS analysis; assay type: ADME, subcellular; conditions: read-out: Stability
[32] = Protein binding in human plasma at 1 uM measured after 4 hrs by LC-MS/MS analysis; assay type: ADME, cell-free; conditions: read-out: PPB (converted)
[33] = Protein binding in rat plasma at 1 uM measured after 4 hrs by LC-MS/MS analysis; assay type: ADME, cell-free; conditions: read-out: PPB (converted)
[34] = Protein binding in mouse plasma at 1 uM measured after 4 hrs by LC-MS/MS analysis; assay type: ADME, cell-free; conditions: read-out: PPB (converted)
Influenza A virus [35] = test: Antiviral activity against Influenza A/California/04/2009 (H1N1)pdm09 infected in specific pathogen-free BALB/c mouse assessed as protection against virus-induced mouse death at 50 mg/kg, po administered via gavage immediately after infection and at 12 hrs post-infection measured on 16 days post-infection relative to control; assay type: functional
Influenza A virus [36] = test: Antiviral activity against Influenza A/California/04/2009 (H1N1)pdm09 infected in specific pathogen-free BALB/c mouse assessed as protection against virus-induced mouse death at 20 mg/kg, po administered via gavage immediately after infection and at 12 hrs post-infection measured on 16 days post-infection relative to control; assay type: functional
[37] = Toxicity in Influenza A/California/04/2009 (H1N1)pdm09 infected specific pathogen-free BALB/c mouse assessed as reduction in body weight at 20 to 50 mg/kg, po administered via gavage immediately after infection and at 12 hrs post-infection measured on 10 days post-infection; assay type: organism-based; conditions: in vivo, 240 h
[38] = Toxicity in Influenza A/California/04/2009 (H1N1)pdm09 infected specific pathogen-free BALB/c mouse assessed as effect on body weight at 20 to 50 mg/kg, po administered via gavage immediately after infection and at 12 hrs post-infection measured after 10 days post-infection; assay type: organism-based; conditions: in vivo, 240 h
Influenza A virus [39] = test: Antiviral activity against Influenza A/California/04/2009 (H1N1)pdm09 infected in specific pathogen-free BALB/c mouse assessed as reduction in virus titre in lung at 20 mg/kg, po administered via gavage immediately after infection and at 12 hrs post-infection measured 24 hrs post-infection; assay type: functional, organism-based

With `O=C1c2c(O)c(=O)ccn2N(C(c2ccccc2)c2ccccc2)[C@@H]2COCCN12` the inhibition (HEK-293T [1]) was 70%, the inhibition (HEK-293T [2]) was 17.8% and the pEC50 (Influenza A virus [3]) was 7.73. For the same molecule, the CC50 [4] was 12.1 µM, the selectivity ratio [5] was 654 and the pEC50 (Influenza A virus [6]) was 7.90 to 8.44. For the same molecule, the pEC50 (Influenza A virus H3N2) was 7.90 to 8.44, the pEC50 (Influenza B virus [7]) was 4.55 to 5.29 and the pEC50 (Influenza B virus [8]) was 4.55 to 5.29. It also gave a CC50 [9] of over 100 µM, a CC50 [10] of 21 µM and a CC50 [11] of 5.8 µM. It also gave a CC50 at 24 h [12] of 20 µM, a CC50 at 24 h [13] of 18 µM and a selectivity ratio at 24 h [14] of 1.1. It also gave an activity at 10 µM [15] of 71.7%, a bioavailability [16] of 38.2% and a Cmax [17] of 1.66 µg/mL. The AUC(0-t) [18] was 2.42 µg·h/mL, the AUC(0-t) [19] was 0.844 µg·h/mL and the Cmax [20] was 3720 ng/g. The AUClast [21] was 7477 ng·h/g, the Kp [22] was 2.2 and the Kp [23] was 3.1. It also gave a remaining at 4 h, 1 µM [24] of 96%, a remaining at 4 h, 1 µM [25] of 89.3% and a remaining at 4 h, 1 µM [26] of 63.2%. The remaining at 4 h, 1 µM [27] was 82.8%, the remaining at 4 h, 1 µM [28] was 71.4% and the remaining at 4 h, 1 µM [29] was 79%. It also gave a remaining at 4 h, 1 µM [30] of 70.1%, a remaining at 4 h, 1 µM [31] of 97.1% and a fraction unbound at 4 h, 1 µM [32] of 0.033. For the same molecule, the fraction unbound at 4 h, 1 µM [33] was 0.193, the fraction unbound at 4 h, 1 µM [34] was 0.138 and the Activity (Influenza A virus [35]) was 60%. The Activity (Influenza A virus [36]) was 80%, the Activity [37] was “Toxic” and the Activity [38] was “Non-Toxic”. The Activity (Influenza A virus [39]) was “Active”.
